The results in this text go back to patent US6004957A, “Sulfonamide inhibitors of aspartyl protease” (Vertex Pharmaceuticals, Incorporated, priority 1998, dated 1999).

Structures can show the parent of a compound that is named as a salt.

Usually IC90 stands for the concentration at which the effect reaches the 90% level.

This assay has as its system HIVIIIb in CCRM-CEM cells. As to the kind of experiment: Anti-viral potency in CCRM-CEM cells acutely infected with HIVIIIb (method of Meek et al.), extracellular p24 antigen. To be noted: Human immunodeficiency virus 1, HIV replication, Table VIII, read-out: IC90 Range. The format is cell-based, HIV-1. An excerpt:
As discussed above, the novel compounds of the present invention are excellent ligands for aspartyl proteases, particularly HIV-1 and HIV-2 proteases. Accordingly, these compounds are capable of targeting and inhibiting late stage events in HIV replication, i.e., the processing of the viral polyproteins by HIV encoded proteases. […] Because aspartyl protease is essential for the production of mature virions, inhibition of that processing effectively blocks the spread of virus by inhibiting the production of infectious virions, particularly from chronically infected cells. […] Other anti-viral assays have confirmed the potency of these compounds.
Compounds of formula I were tested for their antiviral potency in several virological assays. In the first assay, the compounds were added as a solution in dimethylsulfoxide (DMSO) to a test cell culture of CCRM-CEM cells, a strain of CD4^+ human T-cell lymphoma cells, previously acutely infected with HIVIIIb using standard protocols (see Meek, T. D. et al., "Inhibition of HIV-1 protease in infected T-lymphocytes by synthetic peptide analogues", Nature, 343, p. 90 (1990). Preferred compounds are those which are able to inhibit 90% of viral infectivity at a concentration of 1 μM or less. More preferred compounds are those which are able to inhibit 90% of viral infectivity at a concentration of 100 nM or less.
The effect of the compounds on inhibiting the replication of the virus was measured by determining the HIV extracellular p24 antigen concentration using a commercial enzyme immunoassay (obtained from Coulter Corporation, Hialeah, Fla.).
In the case of `CC(C)CN(C[C@@H](O)[C@H](Cc1ccccc1)NC(=O)OCc1cccnc1)S(=O)(=O)c1ccc(F)cc1` [Compound 98, 4-Fluoro-N-((2 syn,3S)-2-hydroxy-4-phenyl-3-(pyridin-3-yl-methoxycarbonylamino)-butyl)-N-isobutyl-benzenesulfonamide], the IC90 lay in the range of 101 to 1000 nM.

For the compound `CC(C)CN(C[C@@H](O)[C@H](Cc1ccccc1)NC(=O)O[C@H]1CCOC1)S(=O)(=O)c1ccc(Cl)cc1` [Compound 99, 4-Chloro-N-((2 syn,3S)-2-hydroxy-4-phenyl-3-((S)-tetrahydrofuran-3-yloxycarbonylamino)-butyl)-isobutyl-benzenesulfonamide], the IC90 lay in the range of 101 to 1000 nM.

In the case of `COc1ccc(S(=O)(=O)N(CC(C)C)C[C@@H](O)[C@H](Cc2ccccc2)NC(=O)O[C@H]2CCOC2)cc1` [Compound 100, N-((2 syn,3S)-2-Hydroxy-4-phenyl-3-((S)-tetrahydrofuran-3-yloxycarbonylamino)-butyl)-N-isobutyl-4-methoxy-benzenesulfonamide], the IC90 is less than 100 nM.

Turning to `COC(=O)N[C@@H](Cc1ccccc1)[C@H](O)CN(CC(C)C)S(=O)(=O)c1ccc(Cl)c(Cl)c1` [Compound 103], the IC90 lay within 1000 to 10000 nM.

Take `COC(=O)N[C@@H](Cc1ccccc1)[C@H](O)CN(CC(C)C)S(=O)(=O)c1ccc(F)cc1` [Compound 104]: the IC90 is 1000 to 10000 nM.

As for `C=C(C)COC(=O)N[C@@H](Cc1ccccc1)[C@H](O)CN(CC(C)C)S(=O)(=O)c1ccc(Cl)c(Cl)c1` [Compound 106], the IC90 is 1000 to 10000 nM.

Turning to `C=C(C)COC(=O)N[C@@H](Cc1ccccc1)[C@H](O)CN(CC(C)C)S(=O)(=O)c1ccc(F)cc1` [Compound 107], the IC90 was in the range of 1000 to 10000 nM.

Consider `CC(C)CN(C[C@@H](O)[C@H](Cc1ccccc1)NC(=O)OC[C@@H]1COC(=O)N1)S(=O)(=O)c1ccc(F)cc1` [Compound 109, 4-Fluoro-N-(2-(syn)-hydroxy-3-((2-oxazolidon-(S)-4-yl)-methoxycarbonylamino)-4-(S)-phenyl-butyl)-N-isobutyl-benzenesulfonamide], for which the IC90 fell in the range of 101 to 1000 nM.

Turning to `O=C(N[C@@H](Cc1ccccc1)[C@H](O)CN(CC1CCCC1)S(=O)(=O)c1ccc(F)cc1)OCc1cccnc1` [Compound 111], the IC90 lay within 1000 to 10000 nM.

Regarding `CC(C)CN(C[C@@H](O)[C@H](Cc1ccccc1)NC(=O)O[C@H]1CCOC1)S(=O)(=O)c1cccc(S(N)(=O)=O)c1` [Compound 112, Benzene-1,3-disulfonic acid 1-amide 3-((2 syn,3S)-2-hydroxy-4-phenyl-3-(3-(S)-tetrahydrofuran-3-yloxycarbonylamino)-butyl)-isobutyl-amide], the IC90 is 101 to 1000 nM.

For the compound `CC(C)CN(C[C@@H](O)[C@H](Cc1ccccc1)NC(=O)O[C@H]1CCOC1)S(=O)(=O)c1ccoc1` [Compound 113], the IC90 is 101 to 1000 nM.

`C=CCOC(=O)N[C@@H](Cc1ccccc1)[C@H](O)CN(CC1CCCC1)S(=O)(=O)c1ccc(F)cc1` [Compound 114, N-((3-Allyloxycarbonylamino)-(2 syn,3S)-2-hydroxy-4-phenyl-butyl)-N-cyclopentylmethyl-4-fluoro-benzenesulfonamide]: the IC90 was 101 to 1000 nM.

`CCOC(=O)N[C@@H](Cc1ccccc1)[C@H](O)CN(CC1CCCC1)S(=O)(=O)c1ccc(F)cc1` [Compound 115, N-Cyclopentylmethyl-N-((3-ethoxycarbonylamino)-(2 syn,3S)-2-hydroxy-4-phenyl-butyl)-4-fluoro-benzenesulfonamide]: the IC90 lay in the range of 101 to 1000 nM.

For the compound `O=C(N[C@@H](Cc1ccccc1)[C@H](O)CN(CC1CCCC1)S(=O)(=O)c1ccc(Cl)cc1)O[C@H]1CCOC1` [Compound 116, 4-Chloro-N-cyclopentylmethyl-N-((2 syn,3S)-2-hydroxy-4-phenyl-3-((S)-tetrahydrofuran-3-yloxycarbonylamino)-butyl)-benzenesulfonamide], the IC90 was less than 100 nM.

Take `C=CCOC(=O)N[C@@H](Cc1ccccc1)[C@H](O)CN(CC1CCCC1)S(=O)(=O)c1ccc(Cl)cc1` [Compound 117]: the IC90 lay within 1000 to 10000 nM.

`O=C(N[C@@H](Cc1ccccc1)[C@H](O)CN(CC1CCCC1)S(=O)(=O)c1ccc(Cl)cc1)OCc1cccnc1` [Compound 118]: the IC90 is 101 to 1000 nM.

For the compound `CCOC(=O)N[C@@H](Cc1ccccc1)[C@H](O)CN(CC(C)C)S(=O)(=O)c1ccc(Cl)c(Cl)c1` [Compound 119], the IC90 lay within 1000 to 10000 nM.

For the compound `CCOC(=O)N[C@@H](Cc1ccccc1)[C@H](O)CN(CC(C)C)S(=O)(=O)c1ccc(F)cc1` [Compound 121], the concentration for an effect of 90% (IC90) fell in the range of 1000 to 10000 nM.

On to `C=CCOC(=O)N[C@@H](Cc1ccccc1)[C@H](O)CN(CC(C)C)S(=O)(=O)c1ccc(F)cc1` [Compound 122], for which the concentration for an effect of 90% (IC90) lay in the range of 1000 to 10000 nM.

As to `CC(C)CN(C[C@@H](O)[C@H](Cc1ccccc1)NC(=O)O[C@H]1CCOC1)S(=O)(=O)c1ccc(F)c(F)c1` [Compound 124], the IC90 lay within 10000 to 40000 nM.

For the compound `CC(=O)Nc1ccc(S(=O)(=O)N(CC2CCCC2)C[C@@H](O)[C@H](Cc2ccccc2)NC(=O)O[C@H]2CCOC2)cc1` [Compound 125, N-(4-(Cyclopentylmethyl-((2 syn,3S)-2-hydroxy-4-phenyl-3-((S)-tetrahydrofuran-3-yloxycarbonylamino)-butyl)-sulfamoyl)-phenyl)-acetamide], the IC90 was 101 to 1000 nM.

In the case of `C=C(C)CN(C[C@@H](O)[C@H](Cc1ccccc1)NC(=O)O[C@H]1CCOC1)S(=O)(=O)c1ccc(F)cc1` [Compound 135], the IC90 lay within 1000 to 10000 nM.

Regarding `CC(C)CN(C[C@@H](O)[C@H](Cc1ccccc1)NC(=O)O[C@H]1CCOC1)S(=O)(=O)c1cccc(Cl)c1` [Compound 138, 3-Chloro-N-((2 syn,3S)-2-hydroxy-4-phenyl-3-((S)-tetrahydrofuran-3-yloxycarbonylamino)-butyl)-N-isobutyl-benzenesulfonamide], the IC90 was in the range of 101 to 1000 nM.

As for `O=C1N[C@H](COC(=O)N[C@@H](Cc2ccccc2)[C@H](O)CN(CC2CCCC2)S(=O)(=O)c2ccc(Cl)cc2)CO1` [Compound 139, 4Chloro-N-cyclopentylmethyl-N-(2-(syn)-hydroxy-3-((2-oxazolidon-4-(S)-yl-methyl)-oxycarbonylamino)-4-phenyl-butyl)-benzenesulfonamide], the IC90 lay in the range of 101 to 1000 nM.

Take `COc1ccc(S(=O)(=O)N(CC2CCCC2)C[C@@H](O)[C@H](Cc2ccccc2)NC(=O)O[C@H]2CCOC2)cc1` [Compound 140, N-cyclopentylmethyl-N-((2 syn,3S)-2-hydroxy-4-phenyl-3-((S)-tetrahydrofuran-3-yloxycarbonylamino)-butyl)-4-methoxy-benzenesulfonamide]: the IC90 is less than 100 nM.

As for `C=CCOC(=O)N[C@@H](Cc1ccccc1)[C@H](O)CN(CC1CCCC1)S(=O)(=O)c1ccc(OC)cc1` [Compound 141, N-((3-allyloxycarbonylamino)-(2 syn,3S)-2-hydroxy-4-phenyl-butyl)-N-cyclopentylmethyl-4-methoxy-benzenesulfonamide], the IC90 is 101 to 1000 nM.

As for `COc1ccc(S(=O)(=O)N(CC2CCCC2)C[C@@H](O)[C@H](Cc2ccccc2)NC(=O)OCc2cccnc2)cc1` [Compound 142], the IC90 is less than 100 nM.

In the case of `CC(C)CN(C[C@@H](O)[C@H](Cc1ccccc1)NC(=O)O[C@H]1CCOC1)S(=O)(=O)c1cccnc1` [Compound 144, Pyridine-3-sulfonic acid ((2 syn,3S)-2-hydroxy-4-phenyl-3-((S)-tetrahydrofuran-3-yloxycarbonylamino)-butyl)-isobutyl-amide, trifluoroacetic acid salt], the IC90 lay in the range of 101 to 1000 nM.

For `CC(C)CN(C[C@@H](O)[C@H](Cc1ccccc1)NC(=O)O[C@H]1CCOC1)S(=O)(=O)c1ccc(-c2ccon2)s1` [Compound 145, 5-Isoxazol-3-yl-thiophene-2-sulfonic acid ((2 syn,3S)-2-hydroxy-4-phenyl-3-((S)-tetrahydrofuran-3-yloxycarbonylamino)-butyl)-isobutyl-amide], the IC90 was in the range of 101 to 1000 nM.

On to `C=CCOC(=O)N[C@@H](Cc1ccccc1)[C@H](O)CN(CC1CCCC1)S(=O)(=O)c1ccc(NC(C)=O)cc1` [Compound 146, N-(4-((3-(Allyloxycarbonylamino)-(2 syn,3S)-2-hydroxy-4-phenyl-butyl)-cyclopentylmethylsulfamoyl)-phenyl)-acetamide], for which the IC90 lay within 101 to 1000 nM.

For `CC(=O)Nc1ccc(S(=O)(=O)N(CC2CCCC2)C[C@@H](O)[C@H](Cc2ccccc2)NC(=O)OCc2cccnc2)cc1` [Compound 147, N-(4-(Cyclopentylmethyl-((2 syn,3S)-2-hydroxy-4-phenyl-3-(pyridin-3-yl-methoxycarbonylamino)-butyl)-sulfamoyl)-phenyl)-acetamide], the IC90 fell in the range of 101 to 1000 nM.

For the compound `O=C(N[C@@H](Cc1ccccc1)[C@H](O)CN(CC1CCCC1)S(=O)(=O)c1ccccc1)O[C@H]1CCOC1` [Compound 148, N-Cyclopentylmethyl-N-((2 syn,3S)-2-hydroxy-4-phenyl-3-((S)-tetrahydrofuran-3-yloxycarbonylamino)-butyl)-benzenesulfonamide], the IC90 is less than 100 nM.

On to `O=C(N[C@@H](Cc1ccccc1)[C@H](O)CN(CC1CCCC1)S(=O)(=O)c1cccnc1)O[C@H]1CCOC1` [Compound 149, Pyridine-3-sulfonic acid cyclopentylmethyl-((2 syn,3S)-2-hydroxy-4-phenyl-3-((S)-tetrahydrofuran-3-yloxycarbonylamino)-butyl)-amide], for which the IC90 lay within 101 to 1000 nM.
